Experimental data reported in PubChem BioAssay AID2060910 (Molecular Pharmacology Branch, DTP, NCI, 2025).

System: 242566-281-R-J2-PDC complex spheroid viability
Assay: Anticancer human tumor 242566-281-R-J2-PDC patient-derived pancreatic carcinoma cell line growth inhibition [RAS]
Conditions: for IC50: curve of first compound; for viability, T/C: stronger effect = lower value
How it was run: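 Tumour cells grown as complex spheroids with HUVEC endothelial cells and mesenchymal stem cells, treated with RAS pathway inhibitor combinations. Each agent spans half-log steps from near clinical Cmax, or 10 microM where Cmax is unknown.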

[1] = second compound 0.00316 µM, first compound 0.0316 µM
[2] = second compound 0.00316 µM, first compound 0.1 µM
[3] = second compound 0.00316 µM, first compound 0.316 µM
[4] = second compound 0.00316 µM, first compound 1 µM
[5] = second compound 0.01 µM, first compound 0.0316 µM
[6] = second compound 0.01 µM, first compound 0.1 µM
[7] = second compound 0.01 µM, first compound 0.316 µM
[8] = second compound 0.01 µM, first compound 1 µM
[9] = second compound 0.0316 µM, first compound 0.0316 µM
[10] = second compound 0.0316 µM, first compound 0.1 µM
[11] = second compound 0.0316 µM, first compound 0.316 µM
[12] = second compound 0.0316 µM, first compound 1 µM
[13] = second compound 0.1 µM, first compound 0.0316 µM
[14] = second compound 0.1 µM, first compound 0.1 µM
[15] = second compound 0.1 µM, first compound 0.316 µM
[16] = second compound 0.1 µM, first compound 1 µM
[17] = second compound 0.316 µM, first compound 0.0316 µM
[18] = second compound 0.316 µM, first compound 0.1 µM
[19] = second compound 0.316 µM, first compound 0.316 µM
[20] = second compound 0.316 µM, first compound 1 µM
[21] = second compound 1 µM, first compound 0.0316 µM
[22] = second compound 1 µM, first compound 0.1 µM
[23] = second compound 1 µM, first compound 0.316 µM
[24] = second compound 1 µM, first compound 1 µM
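Also: spheroids exposed to compound for 7 days before readout.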
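For viability, T/C in this document: 100% = DMSO vehicle control wells.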

`CC1(O)CCCC1n1c(=O)c(C(F)F)cc2cnc(NC3CCN(S(C)(=O)=O)CC3)nc21` (centres undefined) + C=CC(=O)N1CCN(c2nc(OCC3CCCN3C)nc3c(F)c(-c4nc(N)cc(C)c4C(F)(F)F)c(Cl)cc23)C(C)C1 showed an IC50 (second compound 0.00316 µM) greater than 10000 nM, an IC50 (second compound 0.01 µM) greater than 10000 nM and an IC50 (second compound 0.0316 µM) greater than 10000 nM. For the same compound, the IC50 (second compound 0.1 µM) was greater than 10000 nM, the IC50 (second compound 0.316 µM) was greater than 10000 nM and the IC50 (second compound 1 µM) was 9010 nM. The viability, T/C [1] was 86.6%, the viability, T/C [2] was 108% and the viability, T/C [3] was 83.9%. It also gave a viability, T/C [4] of 108%, a viability, T/C (second compound 0.00316 µM, first compound 3.16 µM) of 112% and a viability, T/C (second compound 0.00316 µM, first compound 10 µM) of 72.7%. The viability, T/C [5] was 99%, the viability, T/C [6] was 113% and the viability, T/C [7] was 106%. For the same compound, the viability, T/C [8] was 99.5%, the viability, T/C (second compound 0.01 µM, first compound 3.16 µM) was 123% and the viability, T/C (second compound 0.01 µM, first compound 10 µM) was 68.9%. It also gave a viability, T/C [9] of 94.7%, a viability, T/C [10] of 106% and a viability, T/C [11] of 108%. It also gave a viability, T/C [12] of 132%, a viability, T/C (second compound 0.0316 µM, first compound 3.16 µM) of 115% and a viability, T/C (second compound 0.0316 µM, first compound 10 µM) of 66.6%. It also gave a viability, T/C [13] of 96.3%, a viability, T/C [14] of 104% and a viability, T/C [15] of 97.9%. For the same compound, the viability, T/C [16] was 106%, the viability, T/C (second compound 0.1 µM, first compound 3.16 µM) was 112% and the viability, T/C (second compound 0.1 µM, first compound 10 µM) was 68.2%. For the same compound, the viability, T/C [17] was 96.5%, the viability, T/C [18] was 108% and the viability, T/C [19] was 89.5%. For the same compound, the viability, T/C [20] was 116%, the viability, T/C (second compound 0.316 µM, first compound 3.16 µM) was 139% and the viability, T/C (second compound 0.316 µM, first compound 10 µM) was 64.5%. The viability, T/C [21] was 92.1%, the viability, T/C [22] was 126% and the viability, T/C [23] was 110%. The viability, T/C [24] was 98.1%, the viability, T/C (second compound 1 µM, first compound 3.16 µM) was 112% and the viability, T/C (second compound 1 µM, first compound 10 µM) was 44.2%.
With `Nc1ccn(C2OC(CO)C(O)C2(F)F)c(=O)n1` (centres undefined) + C=CC(=O)N1CCN(c2nc(OCC3CCCN3C)nc3c(F)c(-c4nc(N)cc(C)c4C(F)(F)F)c(Cl)cc23)C(C)C1 the IC50 (second compound 0.00316 µM) was 108 nM, the IC50 (second compound 0.01 µM) was 112 nM and the IC50 (second compound 0.0316 µM) was 103 nM. For the same compound, the IC50 (second compound 0.1 µM) was 96.9 nM, the IC50 (second compound 0.316 µM) was 57.3 nM and the IC50 (second compound 1 µM) was 97.2 nM. The viability, T/C (second compound 0.00316 µM, first compound 0.00316 µM) was 101%, the viability, T/C (second compound 0.00316 µM, first compound 0.01 µM) was 118% and the viability, T/C [1] was 92.6%. The viability, T/C [2] was 52.1%, the viability, T/C [3] was 25.9% and the viability, T/C [4] was 18.4%. The viability, T/C (second compound 0.01 µM, first compound 0.00316 µM) was 123%, the viability, T/C (second compound 0.01 µM, first compound 0.01 µM) was 128% and the viability, T/C [5] was 93.6%. The viability, T/C [6] was 53.8%, the viability, T/C [7] was 26% and the viability, T/C [8] was 16.2%. It also gave a viability, T/C (second compound 0.0316 µM, first compound 0.00316 µM) of 103%, a viability, T/C (second compound 0.0316 µM, first compound 0.01 µM) of 147% and a viability, T/C [9] of 74.3%. It also gave a viability, T/C [10] of 60%, a viability, T/C [11] of 21.6% and a viability, T/C [12] of 15.8%. The viability, T/C (second compound 0.1 µM, first compound 0.00316 µM) was 134%, the viability, T/C (second compound 0.1 µM, first compound 0.01 µM) was 124% and the viability, T/C [13] was 91.3%. For the same compound, the viability, T/C [14] was 50.8%, the viability, T/C [15] was 21.5% and the viability, T/C [16] was 19.1%. It also gave a viability, T/C (second compound 0.316 µM, first compound 0.00316 µM) of 115%, a viability, T/C (second compound 0.316 µM, first compound 0.01 µM) of 160% and a viability, T/C [17] of 75.5%. It also gave a viability, T/C [18] of 41.9%, a viability, T/C [19] of 20.6% and a viability, T/C [20] of 15.7%. It also gave a viability, T/C (second compound 1 µM, first compound 0.00316 µM) of 115%, a viability, T/C (second compound 1 µM, first compound 0.01 µM) of 102% and a viability, T/C [21] of 83.6%. It also gave a viability, T/C [22] of 50.9%, a viability, T/C [23] of 22% and a viability, T/C [24] of 18.9%.
